Experimental data as given in patent US10844064B2, “sGC stimulators” (Cyclerion Therapeutics, Inc., priority 2014, dated 2020).

Each compound was assayed against T1, soluble guanylate cyclase (sGC) (Homo sapiens, UniProt Q02108+Q02153) (assay: sGC-HEK-cGMP assay with LC/MS detection (Example 2A)). Conditions: HEK293 cells, 10 μM DETA-NONOate, 20 min; concentration eliciting 50% of high control response (30 μM Compound Y); read-out: Absolute EC50 (nM) - binned.
T1 construct: endogenously expressing soluble guanylate cyclase (sGC); endogenous in cells; host or cells: HEK293
T1 sequence (Q02108 1-690): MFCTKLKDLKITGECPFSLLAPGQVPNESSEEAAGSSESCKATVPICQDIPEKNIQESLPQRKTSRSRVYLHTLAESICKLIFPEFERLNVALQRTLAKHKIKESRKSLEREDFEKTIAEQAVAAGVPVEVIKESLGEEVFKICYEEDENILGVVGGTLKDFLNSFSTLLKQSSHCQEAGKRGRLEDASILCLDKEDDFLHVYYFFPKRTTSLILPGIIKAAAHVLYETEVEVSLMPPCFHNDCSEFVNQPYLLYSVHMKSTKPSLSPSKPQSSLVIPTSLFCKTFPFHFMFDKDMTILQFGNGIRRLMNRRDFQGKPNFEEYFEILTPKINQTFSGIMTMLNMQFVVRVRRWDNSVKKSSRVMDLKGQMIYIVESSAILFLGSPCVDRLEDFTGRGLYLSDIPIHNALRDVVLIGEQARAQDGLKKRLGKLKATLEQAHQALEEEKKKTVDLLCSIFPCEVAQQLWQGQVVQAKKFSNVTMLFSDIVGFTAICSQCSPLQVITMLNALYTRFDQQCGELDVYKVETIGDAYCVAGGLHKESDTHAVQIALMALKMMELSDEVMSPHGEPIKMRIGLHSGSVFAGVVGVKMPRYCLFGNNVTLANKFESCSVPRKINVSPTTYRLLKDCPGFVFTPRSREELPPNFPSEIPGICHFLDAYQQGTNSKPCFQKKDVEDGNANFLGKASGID
T1 sequence (Q02153 1-619): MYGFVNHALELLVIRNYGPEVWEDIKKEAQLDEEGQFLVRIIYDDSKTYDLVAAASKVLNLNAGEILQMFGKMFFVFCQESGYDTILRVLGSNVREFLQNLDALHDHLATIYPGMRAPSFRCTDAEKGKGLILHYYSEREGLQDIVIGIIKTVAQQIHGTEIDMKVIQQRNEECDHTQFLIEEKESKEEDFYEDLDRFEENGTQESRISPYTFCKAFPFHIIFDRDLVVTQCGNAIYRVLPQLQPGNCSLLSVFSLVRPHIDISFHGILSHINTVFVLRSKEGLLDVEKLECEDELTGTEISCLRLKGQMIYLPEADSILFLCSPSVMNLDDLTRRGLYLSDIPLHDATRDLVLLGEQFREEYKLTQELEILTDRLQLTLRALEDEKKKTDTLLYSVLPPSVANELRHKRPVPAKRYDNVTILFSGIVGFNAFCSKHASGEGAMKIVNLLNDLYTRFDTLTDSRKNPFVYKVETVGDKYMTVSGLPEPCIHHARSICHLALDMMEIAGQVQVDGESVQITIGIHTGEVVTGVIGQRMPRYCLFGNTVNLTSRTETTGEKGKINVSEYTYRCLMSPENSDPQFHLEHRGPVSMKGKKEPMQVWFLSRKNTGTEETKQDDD
Assay type: cell-based
Procedure: Human embryonic kidney cells (HEK293), endogenously expressing soluble guanylate cyclase (sGC), were used to evaluate the activity of test compounds. Compounds stimulating the sGC enzyme should cause an increase in the intracellular concentration of cGMP. HEK 293 cells were seeded in Dulbecco's Modification of Eagle's Medium supplemented with fetal bovine serum (10% final) and penicillin (100 U/mL)/streptomycin (100 μg/mL) in a 50 μL, volume at a density of 1.5×10^4 cells/well in a poly-D-lysine coated 384 well flat bottom plate. Cells were incubated overnight at 37° C. in a humidified chamber with 5% CO2. Medium was aspirated and cells were washed with 1× Hank's Buffered Saline Salt Solution (50 μL). Cells were then incubated for 15 minutes at 37° C. with 50 μL of a 0.5 mM 3-isobutyl-1-methylxanthine (IBMX) solution. Test article and Diethylenetriamine NONOate (DETA-NONOate) solutions (x μM concentration for test article solution and 10 μM concentration for DETA-NONOate solution; wherein x is one of the following concentrations);
were then added to the assay mixture and the resulting mixture incubated at 37° C. for 20 minutes. After the 20 minute incubation, the assay mixture was aspirated and 10% acetic acid containing 150 ng/mL+3-cGMP (internal standard for LCMS) (50 μL) was added to the cells. The plate was incubated at 4° C. for 30 minutes in the acetic acid solution to stop the reaction and lyse the cells. The plates were then centrifuged at 1,000 g for 3 minutes at 4° C. and the supernatant transferred to a clean reaction plate for LCMS analysis.
cGMP concentrations were determined from each sample using the LCMS conditions below (Table 2) and calculated standard curve. The standard curve was prepared in 10% acetic acid with 150 ng/mL+3cGMP (isotopically labelled cGMP with a weight 3 units higher than wild type) with the following final concentrations of cGMP in ng/mL: 1, 5, 10, 50, 100, 250, 500, 1000, 2000.
(§1) Data were normalized to a high control using the following equation: 100*(Sample—Low Control)/(High Control—Low Control), where the low control is the average of 16 samples treated with 1% DMSO, and the high control is the average of 16 samples treated with 30 μM of Compound Y depicted below. Data were fit using a 4-parameter fit (log(agonist) vs. response variable slope) using GraphPad Prism Software v.5. n=2 for all compounds. […] Compounds failing to elicit a minimum response of 50% are reported as >30 μM. For compounds run in duplicate or n higher than 2, the result herein given is the geometric mean of the several results obtained.

SMILES | EC50
CC1(C(=O)NCCO)C(=O)Nc2nc(-c3cc(-c4ccon4)n(Cc4ccccc4F)n3)nc(NCCO)c21 (stereo not shown) [Compound I-7] | > 1000 nM
CCOC(=O)C1(C)C(=O)Nc2nc(-c3cc(-c4ccon4)n(Cc4ccccc4F)n3)ncc21 (stereo not shown) [Compound I-18] | 100 to 1000 nM
CC1(C(=O)NC2CC2)C(=O)Nc2nc(-c3ccn(Cc4ccccc4F)n3)nc(N)c21 (stereo not shown) [Compound I-14, 4-amino-N-cyclopropyl-2-(1-(2-fluorobenzyl)-1H-pyrazol-3-yl)-5-methyl-6-oxo-6,7-dihydro-5H-pyrrolo[2,3-d]pyrimidine-5-carboxamide] | > 1000 nM
COC(=O)NS(=O)(=O)Nc1nc(-c2cc(-c3ccon3)n(Cc3ccccc3F)n2)nc2c1C(C)(C#N)C(=O)N2 (stereo not shown) [Compound I-5] | 100 to 1000 nM
CCOC(=O)C1(C)C(=O)Nc2nc(-c3cc(C(C)=O)n(Cc4ccccc4F)n3)nc(N)c21 (stereo not shown) [Compound I-19] | < 100 nM
CCOC(=O)C1(C)C(=O)Nc2nc(-c3cc(COC)n(Cc4ccccc4F)n3)nc(N)c21 (stereo not shown) [Compound I-21] | > 1000 nM
CCOC(=O)C1(C)C(=O)Nc2nc(-c3cc(-c4ccon4)n(Cc4ccccc4F)n3)nc(Br)c21 (stereo not shown) [Compound I-17] | 100 to 1000 nM
CC1(C)C(=O)N(CCO)c2nc(-c3cc(-c4ccon4)n(Cc4ccccc4F)n3)nnc21 [Compound I-4] | > 1000 nM
COCc1cc(-c2nc(N)c3c(n2)NC(=O)C3(C)C(N)=O)nn1Cc1ccccc1F (stereo not shown) [Compound I-22] | > 1000 nM
OCCn1nnc2cnc(-c3cc(-c4ccon4)n(Cc4ccccc4F)n3)nc21 [Compound I-2] | > 1000 nM

Other lines, results leading:

EC50 | SMILES
> 1000 nM | OC(Cn1nnc2cnc(-c3cc(-c4ccon4)n(Cc4ccccc4F)n3)nc21)(C(F)(F)F)C(F)(F)F [Compound I-3]
100 to 1000 nM | CCOC(=O)C1(C)C(=O)Nc2nc(-c3ccn(Cc4ccccc4F)n3)nc(N)c21 (stereo not shown) [Compound I-13, ethyl 4-amino-2-(1-(2-fluorobenzyl)-1H-pyrazol-3-yl)-5-methyl-6-oxo-6,7-dihydro-5H-pyrrolo[2,3-d]pyrimidine-5-carboxylate]
> 1000 nM | CC1(C(N)=O)C(=O)Nc2nc(-c3cc(-c4ccon4)n(Cc4ccccc4F)n3)ncc21 (stereo not shown) [Compound I-16]
< 100 nM | COc1cc(-c2nc(N)c3c(n2)NC(=O)C3(C)c2nnc(C)o2)nn1Cc1ccccc1F (stereo not shown) [Compound I-1, 4-amino-2-(1-(2-fluorobenzyl)-5-methoxy-1H-pyrazol-3-yl)-5-methyl-5-(5-methyl-1,3,4-oxadiazol-2-yl)-5H-pyrrolo[2,3-d]pyrimidin-6(7H)-one]
> 1000 nM | Fc1ccccc1Cn1nc(-c2ncc3[nH]nnc3n2)cc1-c1ccon1 [Compound I-15]
100 to 1000 nM | COc1cc(-c2nc(N)c3c(n2)NC(=O)C3(C)C)nn1Cc1ccccc1F [Compound I-23]
100 to 1000 nM | CC1(C)C(=O)Nc2nc(-c3cc(-c4ccon4)n(Cc4ccccc4F)n3)nc(NCCO)c21 [Compound I-6]
100 to 1000 nM | CC1(C)C(=O)Nc2nc(-c3cc(-c4ccon4)n(Cc4ccccc4F)n3)nc(NCC(O)(C(N)=O)C(F)(F)F)c21 (stereo not shown) [Compound I-8]
100 to 1000 nM | CC(=O)c1cc(-c2nc(N)c3c(n2)NC(=O)C3(C)C(N)=O)nn1Cc1ccccc1F (stereo not shown) [Compound I-20]

What follows are compounds tested against T2, sGC enzyme (Homo sapiens, UniProt Q02108+Q02153) (assay: cGMP GloSensor cell-based assay, 384-well format (Example 2B)). Conditions: HEK293 GloSensor 40F cGMP cells, 10 μM DETA-NONOate; 50% of high control response (Compound Y); read-out: sGC_HEK_GloSensor EC50/IC50 Abs (Norm) (nM) Binned.
T2 construct: host or cells: HEK293 expressing GloSensor 40F cGMP
T2 sequence (Q02108 1-690): T1 sequence (Q02108 1-690)
T2 sequence (Q02153 1-619): T1 sequence (Q02153 1-619)
Procedure: as §1
Human embryonic kidney cells (HEK293) cells expressing GloSensor™ 40F cGMP (Part No: CS182801, Promega) were used to evaluate the activity of test compounds. The luminescent biosensors (engineered luciferase) that were incorporated into these cells detect cGMP formed by the compounds stimulating the sGC enzyme and emit luminescence.
cGMP GloSensor cells were maintained in Dulbecco's Modification of Eagle's Medium (DMEM) supplemented with fetal bovine serum (FBS) (10% final) and hygromycine (200 μg/ml). The day before assay, cells were plated in DMEM with 10% FBS in a 50 μL volume at a density of 1.5×10^4 cells/well in a poly-D-lysine coated 384-well flat white-bottom plate (Corning Cat No 35661). Cells were incubated overnight at 37° C. in a humidified chamber with 5% CO2. The next day, medium was removed and cells were replaced with 40 μl/well of GloSensor™, […] (Promega Cat No E1291). Cells were treated for 90 minutes at 25° C. to allow the substrate to equilibrate in the cells. Test compounds and Diethylenetriamine NONOate (DETA-NONOate) was diluted to […] in serum-free CO2 independent medium and serally diluted at 4× dilutions to create 5× dose curve from which 10 ul was added to the wells (x uM concentration for test compound solution and 10 μM concentration for DETA-NONOate solution; wherein x is one of the following final concentrations).
For the kinetics studies, luminescense was measured right away for 0.2 sec per well with Envision (Perkin Elmer model No). For endpoint SAR screening, data were collected after 55 min incubation at room temperature.
Data analysis was carried out as indicated above in Example 2A.

SMILES | EC50
CC(=O)c1cc(-c2ncc3c(n2)NC(=O)C3(C)C)nn1Cc1ccccc1F [Compound I-25] | 100 to 1000 nM
COc1cc(-c2ncc3c(n2)NC(=O)C3(C)C)nn1Cc1ccccc1F [Compound I-24] | 100 to 1000 nM
COc1cn(-c2nnc3c(n2)NC(=O)C3(C)C)nc1Cc1ccccc1F [Compound I-67] | 100 to 1000 nM
CC1(C)C(=O)Nc2nc(-c3cc(O)n(Cc4ccccc4F)n3)ncc21 [Compound I-29] | > 1000 nM
Cc1nc(-c2nc(O)c3c(n2)NC(=O)C3(C)C)nn1Cc1ccccc1F [Compound I-88] | > 1000 nM
CC1(C)C(=O)Nc2nc(-c3ccn(Cc4ccccc4F)n3)nc(NCC3CC3)c21 [Compound I-75] | 100 to 1000 nM
COc1cc(-c2ncc3c(n2)NC(=O)C3(C)C)nn1Cc1cccc(C#N)c1 [Compound I-60] | 100 to 1000 nM

Second part, the compound after the results:

EC50 | SMILES
100 to 1000 nM | COc1cc(-c2ncc3c(n2)NC(=O)C3(C)C)nn1Cc1ccccc1Cl [Compound I-56]
> 1000 nM | COc1nc(-c2ccn(Cc3ccccc3F)n2)nc2c1C(C)(C)C(=O)N2 [Compound I-78]
< 100 nM | COc1c(Br)c(-c2ncc3c(n2)NC(=O)C3(C)C)nn1Cc1ccccc1F [Compound I-40]
> 1000 nM | Cc1nc(-c2ccn(Cc3ccccc3F)n2)nc2c1C(C)(C)C(=O)N2 [Compound I-77]
< 100 nM | COc1cc(-c2ncc3c(n2)NC(=O)C3(C)C)nn1Cc1ccc(C)cc1F [Compound I-63]
100 to 1000 nM | COc1cc(-c2nc(O)c3c(n2)NC(=O)C3(C)C)nn1Cc1ccccc1F [Compound I-28]
100 to 1000 nM | COc1c(C)c(-c2nc(N)c3c(n2)NC(=O)C3(C)C)nn1Cc1ccccc1F [Compound I-41]
> 1000 nM | Cn1cc(-c2ncc3c(n2)NC(=O)C3(C)C)nc1Cc1ccccc1F [Compound I-66]
